For one assay, the target named is T1, MLLT3 (Homo sapiens, UniProt P42568).
T1 construct: made in house; host or cells: E. coli Rosetta
The experiment in a line: AlphaScreen assay, MLLT3. As to conditions: Figure 1. Format: binding. The procedure:
Figure 1 Identified hit MLLT1/3 inhibitor compound 1.
II.IV Protein Expression and Purification
Human bromodomains were cloned, expressed and purified as previously described. The cloning, expression and purification of human YEATS domains are described as follows; Sequences for the wild type YEATS domains of MLLT1, MLLT3, GAS41 and YEATS2 were cloned into expression vectors (Table S1). E. coli Rosetta cells were grown in TB medium at 37°C. Overexpression was induced after five hours by addition of IPTG to a final concentration of 0.4 mM and cells were incubated at 17°C overnight. Cells were harvested by centrifugation and the cell pellet was resuspended in cold binding buffer (50 mM Tris at pH 7.5, 500 mM NaCl, 20 mM imidazole, 2 mM DTT) on a magnetic stirring plate at 4°C. The suspension was lysed using an Avestin EmulsiFlex-C5 homogeniser (1 pass without pressure, four passes with pressure between 1000-1500 bar). The lysate was clarified via centrifugation at 16,000 rpm at 4°C for 1 hour (JLA-16 rotor in Beckmann Coulter Avanti J-26S XP centrifuge). The supernatant was loaded onto a standard NiNTA column (HisTrap FF, 5 ml, GE Healthcare Lifesciences) on an ÄKTAxpress system (GE). […] Protein concentration was quantified via extinction at […] (NanoDrop ND-1000 Spectrophotometer) and protein identity was verified via SDS-PAGE and LC/MS. […]

For another assay, the target named is T2, MLLT1 (Homo sapiens, UniProt Q03111).
T2 construct: We also developed a full length MLLT1:Histone 3.3 (H3.3) NanoBRET assay; host or cells: HEK293
T2 sequence (Q03111 whole entry): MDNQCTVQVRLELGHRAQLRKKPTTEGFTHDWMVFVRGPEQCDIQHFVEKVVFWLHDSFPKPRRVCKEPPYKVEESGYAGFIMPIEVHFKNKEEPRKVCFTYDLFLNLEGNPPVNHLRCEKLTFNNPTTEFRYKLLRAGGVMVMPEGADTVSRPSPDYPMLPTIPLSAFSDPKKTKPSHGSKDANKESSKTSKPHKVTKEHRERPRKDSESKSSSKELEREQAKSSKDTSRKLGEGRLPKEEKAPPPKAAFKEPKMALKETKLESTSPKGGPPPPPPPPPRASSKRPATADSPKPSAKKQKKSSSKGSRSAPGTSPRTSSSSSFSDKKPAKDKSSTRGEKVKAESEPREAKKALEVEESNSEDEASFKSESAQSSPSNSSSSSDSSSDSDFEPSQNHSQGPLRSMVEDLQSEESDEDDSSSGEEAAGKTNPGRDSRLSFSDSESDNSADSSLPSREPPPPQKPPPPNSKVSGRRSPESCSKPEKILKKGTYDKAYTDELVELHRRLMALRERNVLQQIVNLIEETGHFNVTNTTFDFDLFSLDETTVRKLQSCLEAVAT
The experiment in a line: NanoBRET assay, full length MLLT1:Histone 3.3 in HEK293 cells. In kind it is cell-based. To be noted: relative to the DMSO control.

The structures appear in SMILES notation.

T1 sequence (P42568 1-138 limits assumed): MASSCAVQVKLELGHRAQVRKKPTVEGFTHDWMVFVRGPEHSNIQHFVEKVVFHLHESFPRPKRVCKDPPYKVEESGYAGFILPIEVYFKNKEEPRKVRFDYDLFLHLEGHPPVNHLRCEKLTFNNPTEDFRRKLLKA
Experimental for MLLT1: transfected with Histone H3.3-HaloTag (NM_002107) and a NanoLuciferase fusion of MLLT1 or MLLT3 (WT sequences from Promega HaloTag® human ORF in pFN21A) at a 1:500 and 1:10 (NanoLuc® to HaloTag®) ratio respectively with FuGENE HD transfection regent. Sixteen hours post-transfection, cells were collected and exchanged into media containing phenol red-free DMEM and 4% FBS in the absence (control sample) or the
Compounds were then added directly to media (in the presence of SAHA 2.5 M) at final concentrations 0.01-30 μM or an equivalent amount of DMSO as a vehicle control, and the plates were incubated for 24 h at 37 °C in the presence
NanoBRET Nano-Glo substrate (Promega) was added to both control and experimental samples at a final concentration of 10 µM. Readings were performed within 5 minutes using
BRET ratios are expressed as milliBRET units (mBU), where 1 mBU corresponds to the corrected BRET ratio multiplied by 1000.
Mean±SD of BRET ratio (mBU), n=4 technical replicates.

On MLLT3, `COC(=O)c1ccc(C(=O)Nc2ccc3[nH]c(CN4CCCCC4)nc3c2)cc1` [Compound 1] returned an IC50 of 1000 nM.

As for `C[C@H]1CCCN1Cc1nc2cc(NC(=O)c3ccc4c(cnn4C)c3)ccc2[nH]1` [Compound 92], the “BRET activity (mBU), MLLT1:H3.3 NanoBRET” value at MLLT1 is given as “no reduction in mBU”.
